The nature of experiment [1]: viability of uninfected HEp-2 cells – cell-based, HTS, cytotoxicity control for RSV inhibitor project, dose response (AID 2410). The experiment is classed as functional. As to conditions: human respiratory syncytial virus.
Experiment [2] is described as follows: mitochondrial function rescue without frataxin homolog – Friedreich's ataxia, plus single-dose screen, dose response (AID 1465).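 Note: yeast depleted of Yfh1p frataxin homolog grown on glycerol needing respiration; WST-1 tetrazolium dye reduction as measure of cellular dehydrogenase metabolic activity.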 The experiment is classed as functional.
A further experiment concerns the target T1, Streptokinase A (Streptococcus pyogenes serotype M1, UniProt P10520).
T1 sequence (P10520 whole entry): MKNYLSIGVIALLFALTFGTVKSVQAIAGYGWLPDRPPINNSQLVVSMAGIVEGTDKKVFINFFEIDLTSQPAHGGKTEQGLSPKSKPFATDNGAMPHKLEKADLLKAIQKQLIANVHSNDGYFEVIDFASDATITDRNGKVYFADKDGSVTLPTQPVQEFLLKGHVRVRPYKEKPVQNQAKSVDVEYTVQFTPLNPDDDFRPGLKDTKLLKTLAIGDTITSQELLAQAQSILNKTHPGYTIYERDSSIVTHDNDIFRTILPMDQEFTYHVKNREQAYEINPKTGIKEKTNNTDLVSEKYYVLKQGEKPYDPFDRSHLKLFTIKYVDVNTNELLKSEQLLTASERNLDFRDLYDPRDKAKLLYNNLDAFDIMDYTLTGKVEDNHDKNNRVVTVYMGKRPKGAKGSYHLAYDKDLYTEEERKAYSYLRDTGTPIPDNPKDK
Kind of experiment: viability-normalized secreted streptokinase activity reduction – plasminogen activation absorbance, OD405, dose response (AID 1914).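 Note: secreted streptokinase activity via plasminogen activation per viability signal from cell pellet.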 The experiment is classed as functional, Streptococcus pyogenes M1 GAS.

Experiment [3] in a line: Trypanosoma cruzi growth suppression in host cells – NIH3T3 host cells, beta-gal luminescence, confirmation (AID 2044).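 Note: intracellular parasites grown in NIH/3T3 mouse fibroblasts as host cells; luminescent beta-galactosidase reporter signal from transgenic T. cruzi replicating inside host cells; inhibitors lower the luminescence signal.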 Type of experiment: functional, cell-based.
A short description of experiment [4]: NIH3T3 cell viability loss – ATP luminescence, mouse fibroblasts, counter-screen, dose response (AID 2010).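 Note: cells exposed to compound for about 90 hours before reading.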 The experiment is classed as functional, cell-based. In general terms: A counterscreen serves to expose hits that act by an unwanted route or on another target.
Experiment [5] addresses Serine/threonine-protein phosphatase (Homo sapiens, UniProt Q9BPW0). Kind of experiment: Counterscreen for inhibitors of PP1: fluorescence-based biochemical high throughput dose response assay to identify inhibitors of Protein Phosphatase 5 (PP5). [Related pubchem assays: 2034 (Summary (PP5 inhibitors)), 1987 (PP5 inhibitors in singlate), 2235 (PP1 inhibitors in singlate)].

The next experiment has as its system Streptococcus. Description: GAS UMAA2166 growth inhibition – luminescence, BacTiterGlo, counter-screen for streptokinase expression inhibitor project, dose response (AID 1915).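 Note: potency for reduction of bacterial viability or growth.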 The experiment is classed as functional, organism-based.
Experiment [6] concerns the target Serine/threonine-protein phosphatase PP1-alpha catalytic subunit (Homo sapiens, UniProt P62136). Description: inhibition of protein phosphatase 1 activity – biochemical, fluorescence, dose response (AID 2403).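 Note: phosphatase turnover of OMFP into fluorescent 3-O-methylfluorescein.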
Experiment [7] relates to Streptococcus sp. 'group A'. Description: Streptococcus pyogenes SK(-)GAS viability under kanamycin – luminescence, BacTiterGlo, confirmation, counter-screen for streptokinase expression inhibitor project, dose response (AID 1900). The experiment is classed as functional, organism-based.
Experiment [8] in a line: cAMP pathway inhibition in counterscreen cell line – TR-FRET cAMP detection, counter-screen for MC4R biased antagonist project, dose response (AID 602305).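 Note: U2OS cells stimulated with forskolin near its EC80 as the cAMP inducer; potency is for inhibition of forskolin-stimulated cAMP signaling.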 Type of experiment: functional, cell-based.
Experiment [9] in a line: antiviral protection against BTV-induced cell death – arbovirus, BSR cells, confirmation (AID 1250).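 Note: protection from viral cytopathic effect measured as cell viability by ATP luminescence.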 Type of experiment: functional.
For another experiment, the target named is Melanocortin receptor 4 (Homo sapiens, UniProt P32245). Kind of experiment: inhibitors of MC4R cAMP signaling – cell-based, TR-FRET, biased antagonists, dose response (AID 602298).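 Note: antagonist potency against agonist-stimulated cAMP production.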 Type of experiment: functional. (Time-resolved FRET reads energy transfer from a long-lived donor to a nearby acceptor.)
Sequence of Melanocortin receptor 4 (P32245 whole entry): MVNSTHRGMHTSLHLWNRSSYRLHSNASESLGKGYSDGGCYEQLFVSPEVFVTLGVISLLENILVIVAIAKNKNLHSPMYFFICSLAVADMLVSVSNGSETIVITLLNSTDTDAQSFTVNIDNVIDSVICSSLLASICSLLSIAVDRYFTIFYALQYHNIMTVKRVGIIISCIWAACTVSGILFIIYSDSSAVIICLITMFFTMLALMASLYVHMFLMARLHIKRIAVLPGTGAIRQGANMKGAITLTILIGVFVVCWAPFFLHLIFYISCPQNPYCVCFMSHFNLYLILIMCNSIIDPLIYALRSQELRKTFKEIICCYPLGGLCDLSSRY
Another experiment concerns the target T2, Aminopeptidase N (Plasmodium falciparum FcB1/Columbia, UniProt O96935).
T2 sequence (O96935 whole entry): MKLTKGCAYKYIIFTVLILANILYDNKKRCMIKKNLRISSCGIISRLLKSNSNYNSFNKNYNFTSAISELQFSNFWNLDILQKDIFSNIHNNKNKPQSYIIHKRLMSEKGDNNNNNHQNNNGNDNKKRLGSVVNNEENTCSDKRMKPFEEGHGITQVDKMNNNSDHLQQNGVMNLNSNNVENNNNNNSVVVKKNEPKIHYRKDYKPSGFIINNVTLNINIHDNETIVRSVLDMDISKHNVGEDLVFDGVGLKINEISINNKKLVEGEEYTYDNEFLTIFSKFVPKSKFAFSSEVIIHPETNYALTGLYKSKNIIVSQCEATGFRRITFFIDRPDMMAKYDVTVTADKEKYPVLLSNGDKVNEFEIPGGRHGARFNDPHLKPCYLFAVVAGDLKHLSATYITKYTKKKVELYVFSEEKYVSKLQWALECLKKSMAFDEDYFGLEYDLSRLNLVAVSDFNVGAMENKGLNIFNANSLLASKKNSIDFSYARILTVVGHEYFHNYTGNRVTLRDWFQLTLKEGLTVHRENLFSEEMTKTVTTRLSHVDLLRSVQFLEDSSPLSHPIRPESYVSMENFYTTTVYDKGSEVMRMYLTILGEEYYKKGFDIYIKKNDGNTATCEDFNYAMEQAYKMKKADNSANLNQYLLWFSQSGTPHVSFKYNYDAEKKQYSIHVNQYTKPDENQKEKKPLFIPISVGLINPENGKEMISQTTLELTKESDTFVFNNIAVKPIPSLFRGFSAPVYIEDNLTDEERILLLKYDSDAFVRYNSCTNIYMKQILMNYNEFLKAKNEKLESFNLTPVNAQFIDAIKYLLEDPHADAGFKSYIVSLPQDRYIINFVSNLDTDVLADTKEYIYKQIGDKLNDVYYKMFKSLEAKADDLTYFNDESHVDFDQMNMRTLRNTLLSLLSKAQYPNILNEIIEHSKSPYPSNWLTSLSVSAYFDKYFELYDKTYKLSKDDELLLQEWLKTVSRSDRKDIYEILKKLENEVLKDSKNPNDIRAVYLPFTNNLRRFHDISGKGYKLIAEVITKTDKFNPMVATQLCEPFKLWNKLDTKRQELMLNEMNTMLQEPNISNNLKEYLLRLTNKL
Description: malaria alanyl aminopeptidase activity blockers – biochemical, fluorogenic H-Leu-NHMec substrate, 1536-well (AID 1445). Also on record: species or system Plasmodium falciparum 3D7, 3D7.

Experiment [10] in a line: M. tuberculosis H37Rv growth inhibitors, H37Rv strain (AID 1626). The experiment is classed as functional.
Experiment [11] concerns the target T3, Eukaryotic translation initiation factor 2-alpha kinase 3 (Homo sapiens, UniProt Q9NZJ5). Description: Counterscreen assay for PERK inhibitors: Dose response cell-based high throughput screening assay to measure inhibition of PERK at 6 hours. [Related pubchem assays: 1522, 1416 ]. The experiment is classed as functional.
Experiment [12] concerns the target T3, Eukaryotic translation initiation factor 2-alpha kinase 3. Kind of experiment: Dose response cell-based high-throughput screening assay to measure PERK inhibition. [Related pubchem assays: 1416 ]. The experiment is classed as functional.

Molecules are shown by their SMILES. Active and inactive are the calls of the source.

The IC50 is the point on the concentration scale where inhibition reaches its midpoint. One may read the CC50 as the concentration that lowers cell viability or growth by half. By EC50 is commonly meant the concentration giving half of the maximal effect.

T3 sequence (Q9NZJ5 whole entry): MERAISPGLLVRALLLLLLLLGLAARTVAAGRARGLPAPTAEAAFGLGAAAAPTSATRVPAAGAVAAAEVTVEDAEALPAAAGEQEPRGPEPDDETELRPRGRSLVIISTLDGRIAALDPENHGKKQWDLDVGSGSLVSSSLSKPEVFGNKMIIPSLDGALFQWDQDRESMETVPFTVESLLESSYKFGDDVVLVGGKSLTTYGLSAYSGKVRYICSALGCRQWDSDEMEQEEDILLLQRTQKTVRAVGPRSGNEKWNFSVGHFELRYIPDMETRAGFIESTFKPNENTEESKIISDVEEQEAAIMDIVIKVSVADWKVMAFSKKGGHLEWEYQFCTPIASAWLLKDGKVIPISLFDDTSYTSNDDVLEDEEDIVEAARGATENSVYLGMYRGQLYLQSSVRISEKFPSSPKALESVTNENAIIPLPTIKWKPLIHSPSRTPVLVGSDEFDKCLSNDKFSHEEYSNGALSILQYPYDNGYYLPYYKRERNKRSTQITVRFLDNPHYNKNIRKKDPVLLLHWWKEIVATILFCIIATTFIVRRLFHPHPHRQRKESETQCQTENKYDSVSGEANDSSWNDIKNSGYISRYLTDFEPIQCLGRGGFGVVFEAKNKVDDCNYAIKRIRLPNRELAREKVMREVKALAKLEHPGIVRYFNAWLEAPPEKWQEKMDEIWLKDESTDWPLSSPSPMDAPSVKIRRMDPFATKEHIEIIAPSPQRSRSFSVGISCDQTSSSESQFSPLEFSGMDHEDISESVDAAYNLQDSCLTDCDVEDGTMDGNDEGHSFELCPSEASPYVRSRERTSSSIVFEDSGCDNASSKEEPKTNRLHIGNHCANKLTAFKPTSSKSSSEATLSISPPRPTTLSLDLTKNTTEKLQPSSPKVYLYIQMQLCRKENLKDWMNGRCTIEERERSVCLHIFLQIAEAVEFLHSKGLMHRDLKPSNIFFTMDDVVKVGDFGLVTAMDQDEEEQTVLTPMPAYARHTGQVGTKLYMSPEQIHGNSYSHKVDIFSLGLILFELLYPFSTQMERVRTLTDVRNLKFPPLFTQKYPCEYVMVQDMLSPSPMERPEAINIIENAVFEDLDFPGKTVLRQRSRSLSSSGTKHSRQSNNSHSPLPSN
Sequence of Serine/threonine-protein phosphatase (Q9BPW0 whole entry): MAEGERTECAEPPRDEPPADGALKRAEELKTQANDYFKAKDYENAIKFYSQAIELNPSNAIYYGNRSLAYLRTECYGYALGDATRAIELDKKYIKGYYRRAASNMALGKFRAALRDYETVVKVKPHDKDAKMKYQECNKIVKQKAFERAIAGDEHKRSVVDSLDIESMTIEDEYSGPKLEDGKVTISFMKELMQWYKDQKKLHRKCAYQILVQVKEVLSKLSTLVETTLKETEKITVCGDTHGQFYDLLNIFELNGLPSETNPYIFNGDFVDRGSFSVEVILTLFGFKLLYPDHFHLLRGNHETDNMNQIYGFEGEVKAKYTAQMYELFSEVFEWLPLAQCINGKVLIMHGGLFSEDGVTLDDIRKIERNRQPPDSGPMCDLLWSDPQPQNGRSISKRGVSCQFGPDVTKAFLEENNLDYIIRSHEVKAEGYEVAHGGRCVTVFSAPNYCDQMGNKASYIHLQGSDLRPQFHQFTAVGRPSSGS
Sequence of Serine/threonine-protein phosphatase PP1-alpha catalytic subunit (P62136 whole entry): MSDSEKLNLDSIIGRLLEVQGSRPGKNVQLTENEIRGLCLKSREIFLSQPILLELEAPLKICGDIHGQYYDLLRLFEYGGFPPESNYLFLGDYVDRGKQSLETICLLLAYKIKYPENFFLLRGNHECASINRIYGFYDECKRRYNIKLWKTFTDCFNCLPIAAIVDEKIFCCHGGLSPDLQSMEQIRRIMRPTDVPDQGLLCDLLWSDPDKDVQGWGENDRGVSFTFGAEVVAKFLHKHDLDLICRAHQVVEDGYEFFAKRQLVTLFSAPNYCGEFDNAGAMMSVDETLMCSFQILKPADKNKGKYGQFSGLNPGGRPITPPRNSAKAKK

Regarding `COc1ccc(CCNC(=O)c2ccc(-c3ccc([N+](=O)[O-])cc3Cl)o2)cc1`, in the experiment “cells”, the IC50 is 25.5 µM (active). In [1], the CC50 is 33.6 µM (active).

With `CCCC(C(=O)O)N1C(=O)/C(=C/c2cccn2C)SC1=S` (configuration not stated), the 50% effective concentration (EC50) in experiment [2] was > 100 µM (active).

Take `COc1ccc(OCCCC(=O)Nc2nc(-c3ccccn3)cs2)cc1`: the EC50 was > 150 µM (not active) at Streptokinase A; 3.24 µM (active) in experiment [3]; 4.35 µM (active) in experiment [4]; > 150 µM (not active) in the experiment with Streptococcus; 31.2 µM (active) in [7]. Moreover, the results for the IC50 in [5] and in experiment [6] were > 67 µM (not active) and 4.59 µM (active), respectively.

For the molecule `CCOc1ccc2nc(NC(=O)CSc3nc(O)c(C#N)c(-c4ccccc4)n3)sc2c1`, the IC50 was > 64.6 µM (inactive) in experiment [8]; 37.9 µM (active) in [9]; > 64.6 µM (inactive) at Melanocortin receptor 4; 24.1 µM (active) at Aminopeptidase N; > 100 µM (active) in experiment [10].

On to `COc1cc([N+](=O)[O-])cc2sc(NC(=O)C(C)(C)C)nc12`, for which the EC50 in experiment [11] and in [12] was > 55.7 µM (not active) in each case.

The values are drawn from ChEMBL document CHEMBL1201862, “PubChem BioAssay data set” (2004).
